Our source for the IC50 values is patent publication US11306084B2, “Integrin antagonists” (Saint Louis University, priority 2016, dated 2022).

Where a name gives a salt, the structure may show the parent alone.

What all share (type): binding
For test [1], the target named is T1, Recombinant human integrin ανβ3 (Homo sapiens, UniProt P05106+P06756).
T1 construct: purchased R&D Systems 3050-AV
As to the kind of experiment: Solid Phase Receptor Assay (SPRA) for ανβ3 function. To be noted: plate-bound human vitronectin; read-out: αvβ3 SPRA IC50. On the procedure:
C. Solid Phase Receptor Assay (SPRA) for ανβ3 Function
(§1) Wells were washed 3 times with 150 μL TBS+ and then 150 μL of blocking buffer (TBS+ with 1% bovine serum albumin, Sigma A7906) was added. The plate was incubated for 1 hr at 37° C. and then washed 3× with TBS+ buffer. […] Compounds were diluted to 20 μM and then 1 μL was added to each well of the plate according to a standard template with each sample repeated in triplicate. After incubation for two hours at room temperature, the plate was washed 3× with 150 μL of TBS+ buffer. To each well, 50 μL of biotinylated anti-αν antibody (R&D Systems, BAF1219) at 0.5 μg/mL in TBS+/0.1% BSA were added and the plate covered and incubated for 1 hr at room temperature. After washing the plate 3× with 150 μL of TBS+ buffer, 50 μL of streptavidin-conjugated horseradish peroxidase (R&D Systems, DY998) diluted in TBS+ blocking buffer were added to the wells and the plate incubated for 20 min at room temperature. The plate was washed 3× with TBS+ buffer followed by 50 μL of TMB substrate (Sigma, T4444) added to each well in the dark and the plate was incubated for 25 min at room temperature. 25 μL of 1.0 M phosphoric acid was added as a stop solution and the plates were read at 450 nm using a Spectramax plate reader.

Test [2] addresses T2, Recombinant human integrin ανβ6 (Homo sapiens, UniProt P06756+P18564).
T2 construct: purchased R&D Systems 3817-AV
As to the kind of experiment: Solid Phase Receptor Assay (SPRA) for ανβ6 function. To be noted: plate-bound human LAP; read-out: αvβ6 SPRA IC50. On the procedure:
E. Solid Phase Receptor Assay (SPRA) for ανβ6 Function
Wells were washed 3 times with 150 μL TBS+, and then 150 μL of blocking buffer (TBS+ with 1% bovine serum albumin, Sigma A7906) was added. The plate was incubated for 1 hr at 37° C., and then washed 3× with TBS+ buffer. […] Compounds were diluted to 20 μM and then 1 μL was added to each well of the plate according to a standard template with each sample repeated in triplicate. After incubation for two hours at room temperature, the plate was washed 3× with 150 μL of TBS+ buffer. To each well, 50 μL of biotinylated anti-αν antibody (R&D Systems, BAF1219) at 0.5 μg/mL in TBS+/0.1% BSA were added and the plate was covered and incubated for 1 hr at room temperature. After washing the plate 3× with 150 μL of TBS+ buffer, 50 μL of streptavidin-conjugated horseradish peroxidase (R&D Systems, DY998) diluted in TBS+ blocking buffer were added to the wells and the plate incubated for 20 min at room temperature. The plate was washed 3× with TBS+ buffer followed by 50 μL of TMB substrate (Sigma T4444) added to each well in the dark and the plate incubated for 10 min at room temperature. 25 μL of 1.0 M phosphoric acid was added as a stop solution and the plates were read at 450 nm using a Spectramax plate reader.

Test [3] has as its target T3, Recombinant human integrin ανβ1 (Homo sapiens, UniProt P05556+P06756).
T3 construct: purchased R&D Systems 6579-AV
Briefly: Solid Phase Receptor Assay (SPRA) for ανβ1 function. To be noted: plate-bound human fibronectin; read-out: αvβ1 SPRA IC50. On the procedure: B. Solid Phase Receptor Assay (SPRA) for ανβ1 Function
as §1, with “μM and 1 μL” for “μM and then 1 μL”, “was washed 3 with 150” for “was washed 3× with 150”, “BAF1219) at 1 μg/mL in” for “BAF1219) at 0.5 μg/mL in”, “the plate incubated for” for “the plate was incubated for”

Test [4] deals with T4, Recombinant human integrin α5β1 (Homo sapiens, UniProt P05556+P08648).
T4 construct: purchased R&D Systems 3230-A5
T4 sequence (P08648 42-995 limits assumed): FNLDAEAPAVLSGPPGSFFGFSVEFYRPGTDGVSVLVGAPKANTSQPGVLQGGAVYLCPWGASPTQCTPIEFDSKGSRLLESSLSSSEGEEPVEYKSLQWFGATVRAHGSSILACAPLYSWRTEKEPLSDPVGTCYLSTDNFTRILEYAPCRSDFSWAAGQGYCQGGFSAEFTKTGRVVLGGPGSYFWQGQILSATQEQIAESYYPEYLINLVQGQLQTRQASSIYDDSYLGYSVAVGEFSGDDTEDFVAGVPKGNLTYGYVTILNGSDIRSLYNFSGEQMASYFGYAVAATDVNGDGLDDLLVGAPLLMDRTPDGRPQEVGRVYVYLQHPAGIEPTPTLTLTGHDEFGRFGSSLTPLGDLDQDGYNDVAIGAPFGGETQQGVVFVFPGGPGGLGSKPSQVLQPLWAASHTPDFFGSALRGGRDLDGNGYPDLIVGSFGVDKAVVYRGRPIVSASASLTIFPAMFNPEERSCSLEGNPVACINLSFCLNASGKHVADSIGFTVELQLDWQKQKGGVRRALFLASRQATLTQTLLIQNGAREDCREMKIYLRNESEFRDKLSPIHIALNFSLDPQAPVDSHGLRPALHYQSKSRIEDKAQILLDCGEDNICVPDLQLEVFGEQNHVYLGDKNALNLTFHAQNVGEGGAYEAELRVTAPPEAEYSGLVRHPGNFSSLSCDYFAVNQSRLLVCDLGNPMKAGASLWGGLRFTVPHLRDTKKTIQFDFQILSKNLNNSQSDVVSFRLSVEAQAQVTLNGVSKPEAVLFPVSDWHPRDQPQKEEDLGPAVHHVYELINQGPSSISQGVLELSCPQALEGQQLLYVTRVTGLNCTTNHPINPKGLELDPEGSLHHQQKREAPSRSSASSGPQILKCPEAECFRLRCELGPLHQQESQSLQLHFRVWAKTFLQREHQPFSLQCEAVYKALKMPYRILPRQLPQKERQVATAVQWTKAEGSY
T4 sequence (P05556 21-728 limits assumed): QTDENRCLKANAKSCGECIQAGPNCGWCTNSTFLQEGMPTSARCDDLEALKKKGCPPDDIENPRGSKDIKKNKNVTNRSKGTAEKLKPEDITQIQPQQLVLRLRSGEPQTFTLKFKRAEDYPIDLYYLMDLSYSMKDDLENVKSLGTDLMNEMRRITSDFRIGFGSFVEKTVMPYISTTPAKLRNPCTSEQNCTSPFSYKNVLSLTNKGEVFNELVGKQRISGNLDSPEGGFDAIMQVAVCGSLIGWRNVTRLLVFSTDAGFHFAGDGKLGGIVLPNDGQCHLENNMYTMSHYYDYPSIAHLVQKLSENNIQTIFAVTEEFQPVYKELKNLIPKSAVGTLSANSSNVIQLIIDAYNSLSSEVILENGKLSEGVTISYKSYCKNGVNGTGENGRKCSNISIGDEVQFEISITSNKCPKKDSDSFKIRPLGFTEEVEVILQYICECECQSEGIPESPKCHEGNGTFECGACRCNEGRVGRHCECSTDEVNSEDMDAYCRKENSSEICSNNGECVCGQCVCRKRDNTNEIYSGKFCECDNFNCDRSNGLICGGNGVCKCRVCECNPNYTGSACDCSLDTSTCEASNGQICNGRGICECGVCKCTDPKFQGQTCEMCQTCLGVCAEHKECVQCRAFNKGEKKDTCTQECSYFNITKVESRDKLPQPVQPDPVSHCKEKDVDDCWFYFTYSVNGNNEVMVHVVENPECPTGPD
As to the kind of experiment: Solid Phase Receptor Assay (SPRA) for α5β1 function. To be noted: plate-bound human fibronectin. On the procedure:
A. Solid Phase Receptor Assay (SPRA) for α5β1 Function
Wells were washed 3 times with 150 μL TBS+ and then 150 μL of blocking buffer (TBS+ with 1% bovine serum albumin, Sigma A7906) was added. The plate was incubated for 1 hr at 37° C. and then washed 3× with TBS+ buffer. […] Compounds were diluted to 20 μM and then 1 μL was added to each well of the plate according to a standard template with each sample repeated in triplicate. After incubation for two hours at room temperature, the plate was washed 3× with 150 μL of TBS+ buffer. To each well, 50 μL of biotinylated anti-α5 antibody (R&D Systems, BAF1864) at 0.5 μg/mL in TBS+/0.1% BSA were added and the plate covered and incubated for 1 hr at room temperature. After washing the plate 3× with 150 μL of TBS+ buffer, 50 μL of streptavidin-conjugated horseradish peroxidase (R&D Systems, DY998) diluted in TBS+ blocking buffer were added to the wells and the plate incubated for 20 min at room temperature. The plate was washed 3× with TBS+ buffer followed by 50 μL of room temperature TMB substrate (Sigma, T4444) added to each well in the dark and the plate incubated for 25 min at room temperature. 25 μL of 1.0 M phosphoric acid was added as a stop solution and the plates were read at 450 nm using a Spectramax plate reader.

T1 sequence (P06756 31-992 limits assumed): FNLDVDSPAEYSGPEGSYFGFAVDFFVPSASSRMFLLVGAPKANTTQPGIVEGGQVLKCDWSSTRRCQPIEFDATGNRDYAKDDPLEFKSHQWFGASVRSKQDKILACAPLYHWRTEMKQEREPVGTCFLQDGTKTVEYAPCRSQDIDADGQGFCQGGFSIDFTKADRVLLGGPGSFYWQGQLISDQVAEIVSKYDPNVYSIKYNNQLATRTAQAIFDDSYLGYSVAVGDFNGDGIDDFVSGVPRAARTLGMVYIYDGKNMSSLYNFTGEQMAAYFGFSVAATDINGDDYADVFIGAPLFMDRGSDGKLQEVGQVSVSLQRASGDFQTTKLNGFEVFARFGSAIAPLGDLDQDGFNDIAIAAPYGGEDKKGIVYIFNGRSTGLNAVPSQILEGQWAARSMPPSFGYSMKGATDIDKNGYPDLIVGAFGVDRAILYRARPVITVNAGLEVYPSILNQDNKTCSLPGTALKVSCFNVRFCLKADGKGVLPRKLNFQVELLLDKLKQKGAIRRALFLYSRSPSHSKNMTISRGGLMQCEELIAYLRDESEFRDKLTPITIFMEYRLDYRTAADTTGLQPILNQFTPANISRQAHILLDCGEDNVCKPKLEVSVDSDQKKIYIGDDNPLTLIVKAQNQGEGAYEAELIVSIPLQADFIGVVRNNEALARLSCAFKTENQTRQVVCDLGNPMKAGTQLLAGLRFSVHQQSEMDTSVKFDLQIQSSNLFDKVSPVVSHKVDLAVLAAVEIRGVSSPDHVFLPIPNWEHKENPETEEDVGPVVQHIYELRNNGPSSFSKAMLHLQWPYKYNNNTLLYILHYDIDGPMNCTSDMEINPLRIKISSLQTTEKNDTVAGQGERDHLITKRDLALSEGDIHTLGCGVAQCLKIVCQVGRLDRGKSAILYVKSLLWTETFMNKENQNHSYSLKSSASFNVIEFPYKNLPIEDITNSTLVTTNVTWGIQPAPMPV
T1 sequence (P05106 27-718 limits assumed): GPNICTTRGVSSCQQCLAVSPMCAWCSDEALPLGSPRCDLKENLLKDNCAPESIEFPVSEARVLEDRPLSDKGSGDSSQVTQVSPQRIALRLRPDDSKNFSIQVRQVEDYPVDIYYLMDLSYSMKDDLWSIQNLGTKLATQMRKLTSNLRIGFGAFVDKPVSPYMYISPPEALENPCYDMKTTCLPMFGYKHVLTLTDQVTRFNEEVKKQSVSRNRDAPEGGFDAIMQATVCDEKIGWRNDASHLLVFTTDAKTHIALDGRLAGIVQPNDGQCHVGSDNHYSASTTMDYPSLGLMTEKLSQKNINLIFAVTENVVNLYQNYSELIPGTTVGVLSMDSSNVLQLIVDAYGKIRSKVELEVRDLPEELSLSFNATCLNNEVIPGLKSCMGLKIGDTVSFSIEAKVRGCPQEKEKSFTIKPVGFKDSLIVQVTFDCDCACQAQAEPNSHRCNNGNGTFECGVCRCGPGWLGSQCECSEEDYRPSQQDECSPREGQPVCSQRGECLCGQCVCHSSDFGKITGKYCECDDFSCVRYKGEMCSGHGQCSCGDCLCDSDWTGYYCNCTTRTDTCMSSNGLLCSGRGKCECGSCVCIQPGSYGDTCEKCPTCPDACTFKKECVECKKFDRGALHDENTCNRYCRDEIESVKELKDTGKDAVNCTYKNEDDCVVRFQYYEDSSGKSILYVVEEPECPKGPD
T2 sequence (P06756 31-992 limits assumed): as the sequence (P06756 31-992 limits assumed) above
T2 sequence (P18564 22-707 limits assumed): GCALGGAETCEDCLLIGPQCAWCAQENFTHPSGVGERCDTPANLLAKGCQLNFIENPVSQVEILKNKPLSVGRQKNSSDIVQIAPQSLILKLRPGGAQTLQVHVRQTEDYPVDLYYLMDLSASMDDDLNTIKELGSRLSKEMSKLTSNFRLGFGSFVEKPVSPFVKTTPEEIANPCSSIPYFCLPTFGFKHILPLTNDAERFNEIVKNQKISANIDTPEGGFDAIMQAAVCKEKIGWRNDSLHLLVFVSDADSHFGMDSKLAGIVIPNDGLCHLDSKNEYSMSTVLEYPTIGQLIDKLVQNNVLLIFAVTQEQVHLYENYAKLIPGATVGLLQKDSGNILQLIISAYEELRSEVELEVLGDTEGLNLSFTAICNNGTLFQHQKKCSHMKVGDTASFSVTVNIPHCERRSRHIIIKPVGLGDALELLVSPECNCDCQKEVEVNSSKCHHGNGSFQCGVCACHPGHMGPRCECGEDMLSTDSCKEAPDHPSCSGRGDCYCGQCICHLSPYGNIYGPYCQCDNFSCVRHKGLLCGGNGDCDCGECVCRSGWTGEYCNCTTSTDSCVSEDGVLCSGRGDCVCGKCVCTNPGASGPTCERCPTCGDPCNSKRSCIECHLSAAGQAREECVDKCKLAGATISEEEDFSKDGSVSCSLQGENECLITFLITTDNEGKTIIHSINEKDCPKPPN
T3 sequence (P06756 31-992 limits assumed): as the sequence (P06756 31-992 limits assumed) above
T3 sequence (P05556 21-728 limits assumed): as the sequence (P05556 21-728 limits assumed) above

Take `Cn1nc(CC(CC(=O)O)c2ccc3c(c2)OCCO3)cc1OCCc1ccc2c(n1)NCCC2` (centres unmarked) [Example 1, 3-(2,3-dihydrobenzo[b][1,4]dioxin-6-yl)-4-(1-methyl-5-(2-(5,6,7,8-tetrahydro-1,8-naphthyridin-2-yl)ethoxy)-1H-pyrazol-3-yl)butanoic Acid]: the IC50 in test [1] was found to be 0.005 µM; in test [2], 0.035 µM; in test [3], 0.006 µM; in test [4], 0.229 µM.

On to `Cn1nc(CC(CC(=O)O)c2cc(F)cc(Cl)c2)cc1OCCc1ccc2c(n1)NCCC2` (centres unmarked) [Example 2, 3-(3-chloro-5-fluorophenyl)-4-(1-methyl-5-(2-(5,6,7,8-tetrahydro-1,8-naphthyridin-2-yl)ethoxy)-1H-pyrazol-3-yl)butanoic Acid], for which the IC50 in test [1] was determined as 0.004 µM; in test [2] it was 0.043 µM; in test [3], 0.005 µM; in test [4], 0.192 µM.

With `COc1ccc(C(CC(=O)O)Cc2cc(OCCc3ccc4c(n3)NCCC4)n(C)n2)cc1F` (centres unmarked) [Example 3, 3-(3-fluoro-4-methoxyphenyl)-4-(1-methyl-5-(2-(5,6,7,8-tetrahydro-1,8-naphthyridin-2-yl)-ethoxy)-1H-pyrazol-3-yl)butanoic Acid], the IC50 amounted to 0.003 µM in test [1], 0.099 µM in test [2], 0.005 µM in test [3] and 0.114 µM in test [4].

`Cn1nc(CC(CC(=O)O)c2ccc(Br)c(F)c2)cc1OCCc1ccc2c(n1)NCCC2` (centres unmarked) [Example 4, 3-(4-bromo-3-fluorophenyl)-4-(1-methyl-5-(2-(5,6,7,8-tetrahydro-1,8-naphthyridin-2-yl)ethoxy)-1H-pyrazol-3-yl)butanoic Acid]: the IC50 is 0.003 µM in test [1], 0.189 µM in test [2], 0.005 µM in test [3] and 0.343 µM in test [4].

On to `Cn1nc(CC(CC(=O)O)c2ccc(F)c(Br)c2)cc1OCCc1ccc2c(n1)NCCC2` (centres unmarked) [Example 5, 3-(3-bromo-4-fluorophenyl)-4-(1-methyl-5-(2-(5,6,7,8-tetrahydro-1,8-naphthyridin-2-yl)ethoxy)-1H-pyrazol-3-yl)butanoic Acid], for which the IC50 in test [1] came to 0.006 µM; in test [2], 0.073 µM; in test [3], 0.011 µM; in test [4], 0.14 µM.

In the case of `Cn1nc(CC(CC(=O)O)c2cccc(Br)c2)cc1OCCc1ccc2c(n1)NCCC2` (centres unmarked) [Example 6, 3-(3-bromophenyl)-4-(1-methyl-5-(2-(5,6,7,8-tetrahydro-1,8-naphthyridin-2-yl)ethoxy)-1H-pyrazol-3-yl)butanoic Acid], the IC50 in test [1] came out at 0.005 µM; in test [2], 0.008 µM; in test [3], 0.01 µM; in test [4], 0.158 µM.

In the case of `Cn1nc(CC(CC(=O)O)c2ccc(F)c(C#N)c2)cc1OCCc1ccc2c(n1)NCCC2` (centres unmarked) [Example 7, 3-(3-cyano-4-fluorophenyl)-4-(1-methyl-5-(2-(5,6,7,8-tetrahydro-1,8-naphthyridin-2-yl)ethoxy)-1H-pyrazol-3-yl)butanoic Acid], the IC50 came to 0.007 µM in test [1], 0.05 µM in test [2], 0.007 µM in test [3] and 0.224 µM in test [4].

For `Cn1nc(CC(CC(=O)O)c2ccc(C#N)c(F)c2)cc1OCCc1ccc2c(n1)NCCC2` (centres unmarked) [Example 8], the IC50 in test [1] stood at 0.006 µM; in test [2], 0.052 µM; in test [3], 0.012 µM; in test [4], 0.166 µM.

For `Cn1nc(CC(CC(=O)O)c2cccc(C#N)c2)cc1OCCc1ccc2c(n1)NCCC2` (centres unmarked) [Example 9, 3-(3-cyanophenyl)-4-(1-methyl-5-(2-(5,6,7,8-tetrahydro-1,8-naphthyridin-2-yl)ethoxy)-1H-pyrazol-3-yl)butanoic Acid], the half-maximal inhibitory concentration (IC50) in test [1] turned out to be 0.006 µM; in test [2], 0.012 µM; in test [3], 0.009 µM; in test [4], 0.11 µM.

With `Cn1nc(CC(CC(=O)O)c2cc(Br)cc(C(F)(F)F)c2)cc1OCCc1ccc2c(n1)NCCC2` (centres unmarked) [Example 10, 3-(3-bromo-5-(trifluoromethyl)phenyl)-4-(1-methyl-5-(2-(5,6,7,8-tetrahydro-1,8-naphthyridin-2-yl)ethoxy)-1H-pyrazol-3-yl)butanoic Acid], the IC50 in test [1] came to 0.0036 µM; in test [2], 0.025 µM; in test [3] it was 0.017 µM; in test [4], 0.12 µM.

In the case of `Cn1nc(CC(CC(=O)O)c2cc(Br)cc(OC(F)(F)F)c2)cc1OCCc1ccc2c(n1)NCCC2` (centres unmarked) [Example 11, 3-(3-bromo-5-(trifluoromethoxy)phenyl)-4-(1-methyl-5-(2-(5,6,7,8-tetrahydro-1,8-naphthyridin-2-yl)ethoxy)-1H-pyrazol-3-yl)butanoic Acid], the IC50 amounted to 0.006 µM in test [1], 0.06 µM in test [2], 0.011 µM in test [3] and 0.15 µM in test [4].

Take `COc1ccc(C(F)(F)F)cc1C(CC(=O)O)Cc1cc(OCCc2ccc3c(n2)NCCC3)n(C)n1` (centres unmarked) [Example 13, 3-(2-methoxy-5-(trifluoromethyl)phenyl)-4-(1-methyl-5-(2-(5,6,7,8-tetrahydro-1,8-naphthyridin-2-yl)ethoxy)-1H-pyrazol-3-yl)butanoic Acid Trifluoroacetate]: the IC50 in test [1] was 0.011 µM; in test [2], 0.051 µM; in test [3], 0.0058 µM; in test [4] it was 0.059 µM.

Consider `COc1ccc(Br)cc1C(CC(=O)O)Cc1cc(OCCc2ccc3c(n2)NCCC3)n(C)n1` (centres unmarked) [Example 14, 3-(5-bromo-2-methoxyphenyl)-4-(1-methyl-5-(2-(5,6,7,8-tetrahydro-1,8-naphthyridin-2-yl)ethoxy)-1H-pyrazol-3-yl)butanoic acid trifluoroacetate], for which the IC50 turned out to be 0.0067 µM in test [1], 0.022 µM in test [2], 0.005 µM in test [3] and 0.044 µM in test [4].

On to `COc1ccc([C@H](CC(=O)O)Cc2cc(OCCc3ccc4c(n3)NCCC4)n(C)n2)cc1F` [Example 15, (3S)-3-(3-fluoro-4-methoxyphenyl)-4-(1-methyl-5-(2-(5,6,7,8-tetrahydro-1,8-naphthyridin-2-yl)ethoxy)-1H-pyrazol-3-yl)butanoic Acid], for which the IC50 in test [1] is 0.0026 µM; in test [2], 0.049 µM; in test [3], 0.0038 µM; in test [4], 0.085 µM.

A word on the IC50: it is the concentration that inhibits the measured activity by half.
